Literature values in patent publication US20060052322A1, “Combination treatment of cancer with elicitor of gene product expression and gene-product targeting agent” (INTROGEN THERAPEUTICS, INC., priority 2004, published 2006).
Where a name gives a salt, the structure may show the parent alone. Read-outs that look alike come from different tables or passages of the source. One block for each molecule: values may come before it. Starred links: 1 amine or outer side, 2 acyl side, 3 side chain; linkers in the order of their positions; H or OH if unused. Positions of bridges follow the written chain, without caps; N, C: chain ends. Non-standard residues stand in square brackets, D forms with d. Residues, ends and D or L forms follow the SMILES beside them. Chains are numbered I, II in the order given. Actinocin(9to1) = Cc1c2oc3c(C)ccc(C(=O)[*:1])c3nc-2c(C(=O)[*:2])c(N)c1=O; NMeV = CN[C@H](C(=O)O)C(C)C; Sar = CNCC(=O)O

Columns and labels:
[1] = share of dose

excreted/recovered in the urine [1]: a few percent
Structure (SMILES): COc1cccc2c1C(=O)c1c(O)c3c(c(O)c1C2=O)C[C@@](O)(C(=O)CO)C[C@@H]3O[C@H]1C[C@H](N)[C@H](O)[C@H](C)O1 [Doxorubicin, 5,12-Naphthacenedione, (8s-cis)-10-[(3-amino-2,3,6-trideoxy-a-L-lyxo-hexopyranosyl)oxy]-7,8,9,10-tetrahydro-6,8,11-trihydroxy-8-(hydroxyacetyl)-1-methoxy-hydrochloride]

Structure (SMILES): COc1cccc2c1C(=O)c1c(O)c3c(c(O)c1C2=O)C[C@@](O)(C(C)=O)C[C@@H]3O[C@H]1C[C@H](N)[C@H](O)[C@H](C)O1 [Daunorubicin, 5,12-Naphthacenedione, (8S-cis)-8-acetyl-10-[(3-amino-2,3,6-trideoxy-a-L-lyxo-hexanopyranosyl)oxy]-7,8,9,10-tetrahydro-6,8,11-trihydroxy-10-methoxy-, hydrochloride]
secreted/excreted into the bile [1]: ~40%

Structure (SMILES): O=NN(CCCl)C(=O)NC1CCCCC1 [Lomustine, 1-(2-chloro-ethyl)-3-cyclohexyl-1 nitrosourea]
solubility (absolute alcohol): 70 mg per ml | solubility (water): < 0.05 mg per ml

excreted/recovered in the urine [1]: Approximately 10%
Structure (SMILES): CO[C@@]12[C@H](COC(N)=O)C3=C(C(=O)C(C)=C(N)C3=O)N1C[C@@H]1N[C@@H]12 [Mitomycin]

excreted/recovered in the urine [1]: Approximately 15%
Structure (SMILES): CC[C@]1(O)C[C@@H]2CN(CCc3c([nH]c4ccccc34)[C@@](C(=O)OC)(c3cc4c(cc3OC)N(C)[C@H]3[C@@](O)(C(=O)OC)[C@H](OC(C)=O)[C@]5(CC)C=CCN6CC[C@]43[C@@H]65)C2)C1 [Vinblastine]

Structure (SMILES): Cc1c2oc3c(C)ccc(C(=O)N[C@@H]4C(=O)N[C@H](C(C)C)C(=O)N5CCC[C@H]5C(=O)N(C)CC(=O)N(C)[C@@H](C(C)C)C(=O)O[C@@H]4C)c3nc-2c(C(=O)N[C@@H]2C(=O)N[C@H](C(C)C)C(=O)N3CCC[C@H]3C(=O)N(C)CC(=O)N(C)[C@@H](C(C)C)C(=O)O[C@@H]2C)c(N)c1=O [Actinomycin D] (I: T[dV]P[Sar][NMeV] / II: T[dV]P[Sar][NMeV]; ester I:1-I:C, II:1-II:C; linker I:N-II:N via Actinocin(9to1))
excreted/recovered in the urine [1]: 10% | secreted/excreted into the bile [1]: Half

Structure (SMILES): CC[C@@]1(O)C(=O)OCc2c1cc1n(c2=O)Cc2cc3ccccc3nc2-1 [Camptothecin]
storage stability (2-8° C., dry, airtight, light-resistant environment): at least two years
